Source: ChEMBL document CHEMBL3817800, “Dihydropyrimidones: As novel class of β-glucuronidase inhibitors” (Bioorg Med Chem, 2016)

Target: T1, Beta-glucuronidase (Bos taurus) (UniProt A3KMY8)
T1 sequence (whole entry): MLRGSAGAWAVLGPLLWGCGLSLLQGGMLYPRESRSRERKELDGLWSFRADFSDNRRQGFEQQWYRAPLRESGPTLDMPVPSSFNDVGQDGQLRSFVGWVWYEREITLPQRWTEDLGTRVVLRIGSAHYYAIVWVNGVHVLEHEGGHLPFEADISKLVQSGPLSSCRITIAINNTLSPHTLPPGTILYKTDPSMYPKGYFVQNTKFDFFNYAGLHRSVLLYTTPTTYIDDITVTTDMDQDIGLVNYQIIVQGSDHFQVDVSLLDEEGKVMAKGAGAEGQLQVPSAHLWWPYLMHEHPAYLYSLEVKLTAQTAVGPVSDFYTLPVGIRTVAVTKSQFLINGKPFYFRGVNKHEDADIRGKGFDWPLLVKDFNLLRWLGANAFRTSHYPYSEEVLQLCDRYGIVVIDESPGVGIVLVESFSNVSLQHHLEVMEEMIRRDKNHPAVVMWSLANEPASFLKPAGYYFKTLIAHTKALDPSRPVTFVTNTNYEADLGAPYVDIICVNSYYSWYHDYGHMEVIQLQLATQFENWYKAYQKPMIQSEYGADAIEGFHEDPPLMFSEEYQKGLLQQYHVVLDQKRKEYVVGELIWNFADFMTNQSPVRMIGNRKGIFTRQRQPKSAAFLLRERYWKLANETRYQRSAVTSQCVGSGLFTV
Test: Potency index, ratio of D-saccharic acid 1,4-lactone IC50 to compound IC50 for bovine liver beta-glucuronidase
Details: not given; call rule not given here

First: COC(=O)C1=C(C)NC(=O)NC1c1c(Cl)cccc1Cl (stereo not given)
Second: COC(=O)C1=C(C)NC(=O)NC1c1cccc(O)c1 (stereo not given)
The Ratio IC50 of the first is lower: 2 for the first, over 3 for the second.

With `COC(=O)C1=C(C)NC(=O)NC1c1ccc(C(F)(F)F)cc1` (stereo not given) the Ratio IC50 was 5.

Target: T2, Beta-glucuronidase (Bos taurus, UniProt A3KMY8)
T2 sequence (A3KMY8 whole entry): T1 sequence (whole entry)
Test: Inhibition of bovine liver beta-glucuronidase assessed as p-nitrophenol formation preincubated for 30 mins followed by p-nitrophenyl-beta-D-glucuronide addition by spectrophotometric method
Details: not given

`COC(=O)C1=C(C)NC(=O)NC1c1ccccc1OCc1ccccc1` (stereo not given) was tested, and the IC50 was “Not Active”.
In the case of `COC(=O)C1=C(C)NC(=O)NC1c1ccccc1` (stereo not given), the IC50 is reported as “Not Active”.
`COC(=O)C1=C(C)NC(=O)NC1c1ccc2ccccc2c1` (stereo not given) was tested, and the IC50 was “Not Active”.
In the case of `COC(=O)C1=C(C)NC(=O)NC1c1ccc(OC)c(OCc2ccccc2)c1` (stereo not given), the IC50 is reported as “Not Active”.
In the case of `COC(=O)C1=C(C)NC(=O)NC1c1cc(Br)c(OC)c(OC)c1` (stereo not given), the IC50 is reported as “Not Active”.
In the case of `COC(=O)C1=C(C)NC(=O)NC1c1cccc(OCc2ccccc2)c1` (stereo not given), the IC50 is reported as “Not Active”.
For `COC(=O)C1=C(C)NC(=O)NC1c1ccc(C(C)C)cc1` (stereo not given), the IC50 was “Not Active”.
`COC(=O)C1=C(C)NC(=O)NC1c1ccc(OC)c(OC)c1` (stereo not given) was tested, and the IC50 was “Not Active”.

Same assay, conditions: read-out: IC50

`CCCCC1NC(=O)NC(C)=C1C(=O)OC` (stereo not given) and `CCC1NC(=O)NC(C)=C1C(=O)OC` (stereo not given) are within 1.5-fold of each other in IC50: 78.2 µM for the first, 52.2 µM for the second.

First: COC(=O)C1=C(C)NC(=O)NC1c1ccc(Cl)cc1 (stereo not given)
Second: COC(=O)C1=C(C)NC(=O)NC1c1ccc(O)cc1 (stereo not given)
The IC50 of the first is 1.9-fold higher: 34.2 µM for the first, 17.6 µM for the second.

`COC(=O)C1=C(C)NC(=O)NC1c1ccc(N(C)C)cc1` (stereo not given) and `COC(=O)C1=C(C)NC(=O)NC1c1ccc(Br)cc1` (stereo not given) are within 1.5-fold of each other in IC50: 49.2 µM for the first, 64.1 µM for the second.

`COC(=O)C1=C(C)NC(=O)NC1CC(C)C` (stereo not given) and `COC(=O)C1=C(C)NC(=O)NC1c1ccc(C)o1` (stereo not given) are within 1.5-fold of each other in IC50: 55.2 µM for the first, 44.2 µM for the second.

`CCOc1ccc(C2NC(=O)NC(C)=C2C(=O)OC)cc1` (stereo not given) and `COC(=O)C1=C(C)NC(=O)NC1c1ccc(OC)cc1` (stereo not given) are within 1.5-fold of each other in IC50: 72.2 µM for the first, 59.2 µM for the second.

`COC(=O)C1=C(C)NC(=O)NC1c1cc(OC)c(O)c(OC)c1` (stereo not given) and `COC(=O)C1=C(C)NC(=O)NC1c1ccc(OC(C)=O)c(OC)c1` (stereo not given) are within 1.5-fold of each other in IC50: 34.2 µM for the first, 28.2 µM for the second.

Compared with `COC(=O)C1=C(C)NC(=O)NC1c1cccs1` (stereo not given), `COC(=O)C1=C(C)NC(=O)NC1c1ccc(C)s1` (stereo not given) is 1.8-fold higher in IC50: 18.2 µM for the first, 33.1 µM for the second.

`COC(=O)C1=C(C)NC(=O)NC1c1cccc(OC)c1OC` (stereo not given) and `COC(=O)C1=C(C)NC(=O)NC1c1ccccc1OC` (stereo not given) are within 1.5-fold of each other in IC50: 54.2 µM for the first, 59.2 µM for the second.

Compared with `COC(=O)C1=C(C)NC(=O)NC1c1ccc(O)c(Cl)c1` (stereo not given), `COC(=O)C1=C(C)NC(=O)NC1c1cccc(O)c1` (stereo not given) is 1.8-fold lower in IC50: 27.2 µM for the first, 15.2 µM for the second. The second is the more potent here.

`COC(=O)C1=C(C)NC(=O)NC1c1ccsc1` (stereo not given) and `COC(=O)C1=C(C)NC(=O)NC1c1ccco1` (stereo not given) are within 1.5-fold of each other in IC50: 47.2 µM for the first, 40.2 µM for the second.

Going from `COC(=O)C1=C(C)NC(=O)NC1c1c(Cl)cccc1Cl` (stereo not given) to `COC(=O)C1=C(C)NC(=O)NC1c1ccccc1Cl` (stereo not given), the IC50 rises from 24.2 µM to 44.2 µM (1.8-fold).

First: COC(=O)C1=C(C)NC(=O)NC1c1cccc2ccccc12 (stereo not given)
Second: COC(=O)C1=C(C)NC(=O)NC1c1ccccc1F (stereo not given)
The IC50 of the first is 3.4-fold higher: 48.2 µM for the first, 14.1 µM for the second.

First: COC(=O)C1=C(C)NC(=O)NC1c1ccc(OC)cc1F (stereo not given)
Second: COC(=O)C1=C(C)NC(=O)NC1c1cc(OC)ccc1OC (stereo not given)
The IC50 of the first is 3.4-fold lower: 18.2 µM for the first, 61 µM for the second.

First: COC(=O)C1=C(C)NC(=O)NC1c1ccc([N+](=O)[O-])cc1 (stereo not given)
Second: COC(=O)C1=C(C)NC(=O)NC1c1ccc(C(F)(F)F)cc1 (stereo not given)
The IC50 of the first is 5.2-fold higher: 49.1 µM for the first, 9.38 µM for the second.

`COC(=O)C1=C(C)NC(=O)NC1c1ccc(F)c(OC)c1` (stereo not given) was tested, and the IC50 was 22.1 µM.
